Experimental data reported in patent US20080188449A1, “Treatment of Conditions Caused By Calcium Abnormalities” (priority 2004, published 2008).

Experiments:
[1] = test system: HeLa cells; assay: [^3H]-triptolide saturation (specific) binding assay; settings: saturation plot
Procedure: Based upon the data above, Applicants next sought to determine if triptolide binding was saturable and if more than one protein (or binding site) was being targeted. Determination of the [^3H]-triptolide binding affinity (KD) and the binding capacity per cell (Bmax) were calculated using a saturation plot. HeLa cells were cultured to 90% confluency and subsequently treated with 0-100 nM of [^3H]-triptolide for one hour. Non-specific binding was defined using 2 μM cold triptolide as competitor. Bmax was calculated to be 99±19 fmol triptolide bound/10^5 cells of triptolide binding sites.
Saturation binding assays were accomplished in HeLa cells adhered on 6-well plates in DMEM+10% FBS. All samples were at least 90% confluent at time of addition of triptolide. Non-specific binding of [^3H]-triptolide was assessed by the pre-incubation of 2 μM (non-labeled) triptolide for one hour. Following cold competition (or DMSO) 5, 10, 20, 50, or 100 nM of [^3H]-triptolide was added into the cultures for an additional one hour, and then cells were lysed and counted for binding activity.

[2] = test system: HeLa cells; assay: [^3H]-triptolide binding with or without extracellular calcium
Source text: To understand further the nature of triptolide's interaction within the cell, Applicants altered cell culture conditions to examine if [^3H]-triptolide binding would be affected. […] Additionally, it has been established that aberrant calcium signaling can result in cell death (Rizzuto, et al., 2003, Oncogene 22, 8619-8627; Orrenius, et al., 2003, Nat Rev Mol Cell Biol 4, 552-565). Due to triptolide's own link with NFκB and NF-AT and its propensity to induce cell death, Applicants examined if triptolide binding could be modulated by free calcium levels. Adherent HeLa cells were cultured in the presence or absence of calcium containing medium for 16 hours before [^3H]-triptolide addition. […] It is also noteworthy that an increase in cell density (not cell number) also increases triptolide binding regardless of calcium levels. Additionally, specific calcium chelation by 10 mM EGTA for one hour in calcium containing medium increased binding by nearly 2 fold.
Labeling studies were performed by the addition of approximately 30 nM [^3H]-triptolide directly into the culture media for one hour at 37° C. […] Total cell lysates were prepared (150 mM NaCl, 50 mM Tris-HCl pH 7.4, 1 mM EDTA, 1% Triton X-100, and Complete protease inhibitors (Roche)) and protein was quantitated before measuring the [^3H]-triptolide binding activity via liquid scintillation.

[3] = test system: HeLa cells; assay: [^3H]-triptolide competition binding in HeLa cells; settings: for competition for [^3H]-triptolide binding: 1 μM competitor
Procedure: To gain insight into triptolide's mechanism of action Applicants sought to determine its specific binding activity utilizing a system employing [^3H]-triptolide. In addition to competition with 1 μM or 10 μM unlabeled triptolide, Applicants also measured the binding affinities of triptolide analogs (FIG. 1A). These analogs have been previously described and differ structurally from triptolide in the hydrolysis of the 12,13 epoxide (2), and formation of the ketone at the C-14 hydroxyl (3) (FIG. 1A). […] The effective interaction of these analogs with a presumed triptolide binding entity led us to their use in subsequent experiments addressing the mode of triptolide's biological functions.
(§1) To address first the nature of triptolide binding within the cell, Applicants determined this interaction was reversible as [^3H]-triptolide labeling was out competed by subsequent addition of excess unlabeled triptolide (FIG. 2A). […] Although 25% of the total cellular counts (i.e., representing bound triptolide) were found in the cytosolic fraction, it is uncertain whether this is specific binding or simply that free triptolide had dissociated from its binding protein due to experimental manipulation during fractionation. Since the data thus far had only shown binding within whole cells, Applicants next determined if this triptolide binding protein could be further characterized and/or enriched by its association with chromatographic reagents. HeLa cells were once again labeled with [^3H]-triptolide and total cell lysates were then passed over the anion exchange resin DEAE. Batch elutions with increasing NaCl concentrations were used to disassociate interactions of variable charge. […] Importantly, Applicants also observed that [^3H]-triptolide would only bind to intact cells in culture but would not bind to any component of a total cellular lysate as assessed by interaction with the DEAE resin. Negative results for a triptolide binding interaction were also observed with DNA-cellulose and the cation exchange resin SPFF (sulphopropyl).
Labeling studies were performed by the addition of approximately 30 nM [^3H]-triptolide directly into the culture media for one hour at 37° C. For cold competition studies, 1 μM triptolide was incubated with the cells for one hour before or after the addition of [^3H]-triptolide. Triptolide analog studies followed a similar protocol where concentrations used for competition were either 1 or 10 μM added before [^3H]-triptolide. Medium was removed and cells were washed 3× in cold PBS. Total cell lysates were prepared (150 mM NaCl, 50 mM Tris-HCl pH 7.4, 1 mM EDTA, 1% Triton X-100, and Complete protease inhibitors (Roche)) and protein was quantitated before measuring the [^3H]-triptolide binding activity via liquid scintillation.

[4] = test system: HeLa cells; assay: Cellular fractionation of [^3H]-triptolide labeled HeLa cells; type: binding
Source text: as §1, with “DEAE.” for “DEAE. Batch elutions with increasing NaCl concentrations were used to disassociate interactions of variable charge.”, “Negative results for a triptolide binding interaction were also observed with DNA-cellulose and the cation exchange resin SPFF (sulphopropyl).” left out
For cellular fractionation studies, cells were allowed to swell on ice and lysed by passage through a syringe in a hypotonic lysis buffer (10 mM Tris-HCl+complete protease inhibitors). […] Gel slices were measured out in equal increments and the molecular weight range of each was calculated. […]

[5] = test system: NFκB transactivation; assay: κB-luciferase reporter assay (TNF-α induced); type: cell-based; settings: 5 hours
Procedure: Having established that triptolide induced cell death is dependent upon free calcium concentration, Applicants next determined if this was also a requirement for the inhibition of NFκB transcription. HeLa cells were transiently transfected with the κB-luciferase reporter construct for 8 hours before being washed and then cultured in the presence or absence of calcium containing medium for 16 hours. Triptolide (100 nM) was pre-incubated with cells for 1 hour before addition of 15 ng/ml of TNF-α for 4 hours.
As an additional experiment, transcriptional activity was also assessed by site-directed calcium buffering. HeLa cells were co-transfected with the κB-luciferase plasmid as well as one of the following constructs: GFP empty vector, NES-PV-GFP, or NLS-PV-GFP and proper GFP localization was confirmed. Cells were grown in the presence of calcium for 24 hours before the addition of 100 nM triptolide and 15 ng/ml TNF-α.
NFκB transactivation was examined using the κb-luciferase reporter construct. HeLa cells were transiently transfected and pre-treated with 0-100 nM triptolide for one hour prior to TNF-α addition. Cells were assessed for NFκB driven luciferase expression after an additional five hours of incubation, at which time TNF-α had induced transcriptional activity by approximately 15-fold in control cells. […] The results thus far support a divergence of triptolide-mediated functions: the pathway regulating growth arrest/death is more sensitive to triptolide and calcium than the mechanism leading to transcriptional repression of NFκB.
(§2) Based upon Applicants' studies examining the concentration dependent effect of triptolide on the two measured biological endpoints, cell death and transcriptional repression, Applicants wanted to determine how modulating triptolide's structure may also discriminate between the two pathways. For cell viability assays, HeLa cells were incubated with 0, 0.1, 1, or 10 μM of each analog or triptolide for 24 hours and then counted using trypan blue dye exclusion. […] NFκB transcriptional inhibition was measured using the κB-luciferase assay as previously described following 5 hours of incubation with each analog (0-10 μM) and TNF-α addition.
A triple κB promoter-Luciferase reporter construct was a gift of Sankar Ghosh (Yale University). HeLa cells were plated at a density of 2×10^5 in 12 well plates and transfected with 100 ng of the κB-Luciferase plasmid plus Lipofectamine 2000 (Invitrogen) for 24 hours before the addition of 100 nM triptolide for one hour and 15 ng/ml of recombinant (human) TNF-α (Roche) for an additional five hours. The transfection efficiency of HeLa was determined to be 80-90%, and all samples were normalized to protein concentration. Luciferase assays were performed using the Firefly luciferase kit as per manufacturer's protocol (Promega) and results obtained on the Wallac Victor2 1420 Multilabel Counter (Perkin Elmer).

[6] = test system: HeLa cells; assay: HeLa cell viability by trypan blue dye exclusion; type: cell-based
Procedure: Since extracellular calcium concentration can influence triptolide binding Applicants sought to determine if the presence of calcium influences the rate of triptolide-mediated apoptosis. To first establish the growth rate of HeLa in media±calcium, cell counts were performed over a 72 hour time course. Although calcium-free media caused cells to detach more easily, the overall growth rates were similar where cell doubling occurred every 24 hours on average (FIG. 3B). For triptolide experiments, cells were initially equilibrated in medium±calcium for 16 hours before the addition of 100 nM triptolide. Cell death was assessed by trypan blue dye exclusion at 24, 48, and 72 hours post drug treatment. In the presence of calcium-containing medium, triptolide induced at least 50% cell death by 24 hours with this trend continuing through later time points (FIG. 3C).
Applicants' results have implicated reversible binding of triptolide to a potential binding protein or complex that can be regulated by calcium. To understand if triptolide function is further separable between cell death and NFκB inhibition, Applicants examined the effect of concentration on these two endpoints. HeLa cells were cultured in the presence of 0, 10, 25, 50, or 100 nM of triptolide and separately assessed for cell death or the ability to suppress NFκB transactivation promoted by TNF-α. Following 24-48 hours of culture, viable cells were recovered and counted. Following 24 hours, triptolide concentrations from 25-100 nM caused greater than 50% of the cells to undergo cell death as assessed by detachment, clumping and the failure to exclude trypan blue dye. […] This is consistent with previous studies showing that low doses of triptolide cause cell cycle arrest rather than apoptosis (Kiviharju, et al., 2002, Clin Cancer Res 8, 2666-2674).
as §2
HeLa cells were incubated in DMEM or SMEM (Gibco) media+10% FBS and maintained at 37° C. in 5% CO2 for all experiments. HeLa cell viability was assessed by trypan blue dye exclusion, as well as by morphological examination (non-viable cells were rounded and detached from culture plate).

SMILES | binding capacity per cell (Bmax) [1] | increase of binding ([2]; 10 mM EGTA for one hour in calcium containing medium) [fold] | increase of [^3H]-triptolide binding ([2]; absence of extracellular calcium for 16 hours) | nature of binding interaction ([3]; excess unlabeled triptolide added after [^3H]-triptolide) | total cellular counts found in the cytosolic fraction ([4]; S-100) [%] | cellular fraction bound ([4]; S-100 / P-100 fractionation) | profile of transcriptional repression ([5]; 0.1-10 μM) | effect on cells ([6]; 25 nM) | profile of cell death ([6]; 0.1-10 μM, 24 hours) | competition for [^3H]-triptolide binding ([3]; HeLa cells) | displacement of [^3H]-triptolide binding ([3]; 1 or 10 μM competitor one hour before [^3H]-triptolide, HeLa cells) | effect on NFκB transcriptional activity ([5]; 1 μM) | cell viability ([6]; 0.1 μM, 24 hours) | cell growth ([6]; 0.1 μM, out to 72 hours) | cell death ([6]; 1 μM, 24 hours)
CC(C)[C@]12O[C@H]1[C@@H]1O[C@]13[C@]1(O[C@H]1C[C@H]1C4=C(CC[C@@]13C)C(=O)OC4)[C@@H]2O [[^3H]-triptolide] | 99±19 fmol triptolide bound/10^5 cells | ~2 | 2-4 fold | reversible | 25 | predominantly to the membrane fraction (P-100) |  |  |  |  |  |  |  |  | 
CC(C)[C@]12O[C@H]1[C@@H]1O[C@@]13[C@@]1(C)CCC4=C(COC4=O)[C@@H]1C[C@@H]1O[C@@]13C2=O [analog (3), Triptonide] |  |  |  |  |  |  | mimicked triptolide with no significant difference | only a growth suppressive effect | mimicked triptolide with no significant difference | higher competitive ability than triptolide itself | near complete |  |  |  | 
CC(C)C1(O)C(O)C2OC23C2(C)CCC4=C(COC4=O)C2CC2OC23C1O (stereo not shown) [analog (2), Triol-Triptolide] |  |  |  |  |  |  |  |  |  | efficiently competes |  | no effect | not different from the untreated control | overall growth suppressive effect | greater than 50%
